Laboratory results published in PMC9458978, “Design, synthesis and biological evaluation of novel biphenylsulfonamide derivatives as selective AT2 receptor antagonists” (Frontiers in Chemistry, 2022).
Entries after “also recorded” stand apart in the source; their conditions may differ. Like-named read-outs stand apart in the source and are kept apart here.

Tests used:
AT2 receptor [1] = target: T1, AT2 receptor (Homo sapiens, UniProt P50052); assay: HEK-293 cell AT2 receptor binding assay ([125I]-CGP42112 displacement, HEK293-hAT2R)
T1 construct: expressed in transfected cells; host or cells: HEK-293
T1 sequence (P50052 1-363): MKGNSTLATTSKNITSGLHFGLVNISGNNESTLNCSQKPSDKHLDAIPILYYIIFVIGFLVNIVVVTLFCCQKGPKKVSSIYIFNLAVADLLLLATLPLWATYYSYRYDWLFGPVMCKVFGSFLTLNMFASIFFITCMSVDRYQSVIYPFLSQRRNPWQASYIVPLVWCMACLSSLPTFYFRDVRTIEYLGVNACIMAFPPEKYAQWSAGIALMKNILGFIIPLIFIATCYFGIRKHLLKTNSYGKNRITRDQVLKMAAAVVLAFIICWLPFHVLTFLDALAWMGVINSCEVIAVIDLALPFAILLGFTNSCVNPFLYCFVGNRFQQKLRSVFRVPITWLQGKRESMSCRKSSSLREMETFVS
Description: All of above methods were widely accepted and used to evaluate the binding activity of AT1 and AT2 receptors.
The lysis solution was mixed and centrifuged at 12,000 g for 10 min at 4°C. Details are shown in the Supplementary Material.
After HEK-293 cells were transfected with AT2 receptor, lysis buffer (150 mM NaCl, 0.1% Triton X-100, 50 mM Tris-HCl, 1 mM EDTA, protease inhibitor) was used to separate the cell membrane of HEK-293 cells[2],using 27-G Resuspend and mix the lysis solution, and centrifuge at 12,000 g for 10 minutes at 4 °C. The supernatant was collected and centrifuged for a further 60 minutes. The precipitated membrane extracts were buffered (150 mM NaCl, 10 mM MgCl2, 0.5 % SDS, 1 % Triton X-100, 50 mM Tris-Cl, 1 mM EDTA, protease inhibitor ) for resuspension. […]
mL containing 50 mM Tris-HCl (pH 7.4), 100 mM NaCl, 10 mM MgCl2, 1 mM […]
cpm, 0.03 nM), and variable concentrations of test substance. Samples were incubated at 25 ℃ for 2 h, and binding was terminated by filtration through Whatman GF/B glass-fiber filter sheets, which had been presoaked overnight with 0.3 % polyethylamine, using a Brandel cell harvester. The filterswere washed with 3×3 mL of Tris-HCl (pH 7.4) and transferred to tubes. The radioactivity was measured in a γ-counter. The characteristics of the Ang II binding AT1 receptor was determined by […]
Nonspecific binding was determined in the presence of 1 µM Ang II.The specific binding was determined by subtracting the nonspecific binding from the total bound The apparent dissociation constant Ki values were calculated from IC50 values using the Cheng-Prusoff equation. […]
(§1) one-site fit.All determinations were performed in triplicate. […]

AT1 receptor = target: T2, AT1 receptor (Rattus norvegicus, UniProt P25095); assay: Rat liver membrane AT1 receptor binding assay ([125I]-Ang II displacement); conditions: displacement of [125I]-Ang II, rat liver membranes; means ± SE, triplicate; read-out: Ki (nM) AT1R
T2 construct: Rat liver membranes were prepared according to the method of Dudley et al; from tissue; host or cells: rat liver membranes
T2 sequence (P25095 whole entry): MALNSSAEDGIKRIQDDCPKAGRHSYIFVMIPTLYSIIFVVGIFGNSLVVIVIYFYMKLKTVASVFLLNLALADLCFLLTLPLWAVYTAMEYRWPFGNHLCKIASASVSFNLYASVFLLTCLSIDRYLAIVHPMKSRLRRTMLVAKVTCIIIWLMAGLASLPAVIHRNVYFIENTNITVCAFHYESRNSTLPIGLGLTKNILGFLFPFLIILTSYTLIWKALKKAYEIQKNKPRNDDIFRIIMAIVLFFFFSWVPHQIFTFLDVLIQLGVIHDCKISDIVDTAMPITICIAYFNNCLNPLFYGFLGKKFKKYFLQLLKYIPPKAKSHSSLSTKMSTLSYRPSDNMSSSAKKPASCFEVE
Description: The target compounds were evaluated for AT1 receptor binding affinity by displacement of [^125I]-Ang II from the AT1 receptor in rat liver membranes. The radio-iodinated AT2 receptor selective ligand [^125I]-CGP42112 was used to study AT2 receptor binding affinity in HEK-293 cells (HEK293-hAT2R) ([Dudley et al., 1990]; [Whitebread et al., 1991]). All of above methods were widely accepted and used to evaluate the binding activity of AT1 and AT2 receptors.
Rat liver membranes were prepared according to the method of Dudley et al ([Dudley et al., 1990]). After HEK-293 cells were transfected with the AT2 receptor, a lysis buffer was used to separate the cell membrane of HEK-293 cells ([Grieger et al., 2016]), using 27-G Resuspend. The lysis solution was mixed and centrifuged at 12,000 g for 10 min at 4°C. Details are shown in the Supplementary Material.
3. Radioligand binding assay steps
3.1 Rat Liver Membrane AT1 Receptor Binding Assay.
Rat liver membranes were prepared according to the method of Dudley et al[1].
Binding of [125I]-Ang II to membranes was conducted in a final volume of 0.5 mL containing 50 mM Tris-HCl (pH 7.4), 100 mM NaCl, 10 mM MgCl2, 1 mM EDTA, 0.025% bacitracin, 0.2% BSA (bovine serum albumin), liver homogenate corresponding to 5 mg of the original tissue weight, [125I]-Ang II (80000-85 000 cpm, 0.03 nM), and variable concentrations of test substance. Samples were incubated at 25 ℃ for 2 h, and binding was terminated by filtration through Whatman GF/B glass-fiber filter sheets, which had been presoaked overnight with 0.3 % polyethylamine, using a Brandel cell harvester. The filterswere washed with 3×3 mL of Tris-HCl (pH 7.4) and transferred to tubes. The radioactivity was measured in a γ-counter. The characteristics of the Ang II binding AT1receptor was determined by using six different concentrations (0.03-5 nmol/L) of the labeled [125I]-Ang II.
Nonspecific binding was determined in the presence of 1 µM Ang II.The specific binding was determined by subtracting the nonspecific binding from the total bound [125I]-Ang II.The apparent dissociation constant Ki values were calculated from IC50 values using the Cheng-Prusoff equation. […]
as §1

AT2 receptor [2] = assay: Neurite outgrowth assay with NG108-15 cells (AT2 receptor function assay)
Description: The ratio of cell neurite outgrowth was used to evaluate, and the details are shown in the Supplementary Material.
NG108-15 cells (China Center for Type Culture Collection CCTCC) were used to study the in vitro morphological effects. In their undifferentiated state, neuroblastoma × glioma hybrid NG108-15 cells havea rounded shape and divide actively. The cells were cultured from passage 18–25 in Dulbecco’s modified Eagle’s medium (DMEM, Gibco BRL, Thermo Fisher Technology (China) Co., Ltd, China) with 10% fetal bovine serum (FBS, Gibco), HAT supplement and 50 mg L^−1 gentamycin at 37°C in 75 cm^2 Nunclon Delta flasks in a humidified atmosphere of 95% air and 5% CO2, as previously described ([Buisson et al., 1992]). Subcultures were performed at subconfluency. Under these conditions, cells express mainly the AT2 receptor subtype ([Whitebread et al., 1991]). Cells were treated during 3 days, once a day (first treatment 24 h after plating), and micrographs were taken on the fourth day. The details of experimental grouping and administration method are shown in the Supplementary Material. […]
4. NG108-15 cell experiment steps […]
peptidic AT2 receptor agonist CGP-42112A induces neurite outgrowth. The […]
plated as described in the Experimental Section, and adequate test concentrations for […]
each compound were determined by testing a dilution series of each compound […]
ranging from 1 pM to 1 uM.
The chemicals used in the present study were obtained from the following sources: Dulbecco’s modified Eagle’s medium (DMEM), heat-inactivated fetal bovine serum (FBS), HAT supplement (hypoxanthine, aminopterin, thymidine), gentamycin from Gibco BRL (Burlington, Ontario, Canada), and Ang II from MedChemExpress

| Compound | Ki (AT2 receptor [1]) [nM] | melting point [°C] | Ki (AT1 receptor) [nM] | Function (AT2 receptor agonist / antagonist) (AT2 receptor [2]; 3-day treatment, 10 or 100 nM, with or without PD-123,319 (10 uM) or Ang II) | evidence of cell death (AT2 receptor [2]; dilution series 1 pM to 1 uM, seen only at the highest concentration) | Ki (AT2 receptor [1]; displacement of [125I]-CGP42112, HEK293-hAT2R membranes, means ± SE, triplicate, read-out: Ki (nM) AT2R) [nM] | morphology compared to untreated cells (AT2 receptor [2]; PD-123,319 alone) | ratio of cell neurite outgrowth (cells with neurites as percentage of total cells) (AT2 receptor [2]; 3-day treatment, substance alone (Ang II 100 nM; compounds 10 or 100 nM)) [%] |
| --- | --- | --- | --- | --- | --- | --- | --- | --- |
| CCCCC(=O)NS(=O)(=O)c1ccc(CC(C)C)cc1-c1cccc(Cn2cncn2)c1 [8a, N-((3'-((1H-1,2,4-triazol-1-yl)methyl)-5-isobutyl-[1,1′-biphenyl]-2-yl)sulfonyl)pentanamide] | 873.7 ± 1.1 | 138.4 to 139.7 | 629.4 ± 1.1 | – | – | – | – | – |
| CCCCOC(=O)NS(=O)(=O)c1ccc(CC(C)C)cc1-c1cccc(Cn2cncn2)c1 [8b, ((3'-((1H-1,2,4-triazol-1-yl)methyl)-5-isobutyl-[1,1′-biphenyl]-2-yl)sulfonyl)carbamae] | 273.5 ± 1.2 | 148.1 to 149.3 | 846.1 ± 1.17 | – | – | – | – | – |
| CC(C)COC(=O)NS(=O)(=O)c1ccc(CC(C)C)cc1-c1cccc(Cn2cncn2)c1 [8c, Isobutyl((3'-((1H-1,2,4-triazol-1-yl)methyl)-5-isobutyl-[1,1′-biphenyl]-2-yl)sulfonyl)carbamate] | 322 ± 1.24 | 145.3 to 146.2 | 1037 ± 1.1 | – | – | – | – | – |
| CC(C)Cc1ccc(S(=O)(=O)NC(=O)OC(C)C)c(-c2cccc(Cn3cncn3)c2)c1 [8d, Isopropyl((3’-((1H-1,2,4-triazol-1-yl)methyl)-5-isobutyl-[1,1′-biphenyl]-2-yl)sulfonyl)carbamate] | 116 ± 1.18 | – | 1786 ± 1.37 | antagonistic activity; also recorded: antagonist activity | evidence of cell death | – | – | – |
| CCCCC(=O)NS(=O)(=O)c1ccc(CCCC)cc1-c1cccc(Cn2cncn2)c1 [8e, N-((3'-((1H-1,2,4-triazol-1-yl)methyl)-5-butyl-[1,1′-biphenyl]-2-yl)sulfonyl)pentanamide] | 753.9 ± 1.1 | 141.8 to 142.4 | 505.2 ± 1.4 | – | – | – | – | – |
| CCCCOC(=O)NS(=O)(=O)c1ccc(CCCC)cc1-c1cccc(Cn2cncn2)c1 [8f, Butyl((3'-((1H-1,2,4-triazol-1-yl)methyl)-5-butyl-[1,1′-biphenyl]-2-yl)sulfonyl)carbamate] | 252.7 ± 1.2 | 150.1 to 151.4 | 1425 ± 1.12 | – | – | – | – | – |
| CCCCc1ccc(S(=O)(=O)NC(=O)OCC(C)C)c(-c2cccc(Cn3cncn3)c2)c1 [8g, Isobutyl((3'-((1H-1,2,4-triazol-1-yl)methyl)-5-butyl-[1,1′-biphenyl]-2-yl)sulfonyl)carbamate] | 347.5 ± 1.36 | 168.4 to 169.1 | 945.5 ± 1.22 | – | – | – | – | – |
| CCCCC(=O)NS(=O)(=O)c1ccc(CC(C)C)cc1-c1cccc(Cn2cccn2)c1 [9a, N-((3'-((1H-pyrazol-1-yl)methyl)-5-isobutyl-[1,1′-biphenyl]-2-yl)sulfonyl)pentanamide] | 1152 ± 1.1 | 125.8 to 126.7 | 1264 ± 1.14 | – | – | – | – | – |
| CCCCOC(=O)NS(=O)(=O)c1ccc(CC(C)C)cc1-c1cccc(Cn2cccn2)c1 [9b, Butyl((3'-((1H-pyrazol-1-yl)methyl)-5-isobutyl-[1,1′-biphenyl]-2-yl)sulfonyl)carbamate] | – | 129.1 to 131.4 | 989.7 ± 1.08 | – | – | 1027 ± 1.15 | – | – |
| CC(C)COC(=O)NS(=O)(=O)c1ccc(CC(C)C)cc1-c1cccc(Cn2cccn2)c1 [9c, Isobutyl((3'-((1H-pyrazol-1-yl)methyl)-5-isobutyl-[1,1′-biphenyl]-2-yl)sulfonyl)carbamate] | 916.2 ± 1.3 | 149.6 to 151.3 | 1027 ± 1.08 | – | – | – | – | – |
| CC(C)Cc1ccc(S(=O)(=O)NC(=O)OC(C)C)c(-c2cccc(Cn3cccn3)c2)c1 [9d, Isopropyl((3'-((1H-pyrazol-1-yl)methyl)-5-isobutyl-[1,1′-biphenyl]-2-yl)sulfonyl)carbamate] | 74.1 ± 1.16 | 146.6 to 147.5 | 1549 ± 1.11 | – | – | – | – | – |
| CCCCC(=O)NS(=O)(=O)c1ccc(CCCC)cc1-c1cccc(Cn2cccn2)c1 [9e, N-((3'-((1H-pyrazol-1-yl)methyl)-5-butyl-[1,1′-biphenyl]-2-yl)sulfonyl)pentanamide] | 992.9 ± 1.26 | 140.1 to 141.3 | 363.9 ± 1.28 | – | – | – | – | – |
| CCCCOC(=O)NS(=O)(=O)c1ccc(CCCC)cc1-c1cccc(Cn2cccn2)c1 [9f, Butyl((3'-((1H-pyrazol-1-yl)methyl)-5-butyl-[1,1′-biphenyl]-2-yl)sulfonyl)carbamate] | 467.9 ± 1.19 | 142.5 to 143.1 | 1310 ± 1.11 | – | – | – | – | – |
| CCCCc1ccc(S(=O)(=O)NC(=O)OCC(C)C)c(-c2cccc(Cn3cccn3)c2)c1 [9g, Isobutyl((3'-((1H-pyrazol-1-yl)methyl)-5-butyl-[1,1′-biphenyl]-2-yl)sulfonyl)carbamate] | 513.3 ± 1.18 | 149.3 to 151.2 | 1212 ± 1.12 | – | – | – | – | – |
| Cc1cc(Cn2cnc3c2C[C@@H](C(=O)O)N(C(=O)C(c2ccccc2)c2ccccc2)C3)ccc1N(C)C [PD-123,319, reference compound] | – | – | – | – | – | – | did not alter | – |
| Ang II [reference compound] | – | – | – | – | – | – | – | ~20 |
